Test results as given in US10487078B2, “Compositions and methods of targeting mutant K-RAS” (NantBio, Inc., priority 2015, dated 2019).
Where two headings read alike, the source gives them in different places.

Assays:
Format in all cases: cell-based
[1] = biological target: K-ras G12D (Homo sapiens, UniProt P01116, G12D); test: G-LISA Ras activation assay, 293H cells transfected with G12D mutant; details: 1 hour treatment
Experimental: (§1) 293H cells were seeded in 6-wells at 0.6×10^6 cells per well and transfected next day with 5 μg of Ras wild-type, or G12C, G12D or G12V mutant DNA plasmid vector using transfection reagent Lipofectamine 3000. Next day cells were treated with 3.125-50 μM of Ras compounds for 1 hour. Wild-type transfected cells were subsequently treated with 100 ng/ml EGF for 2 minutes. Cells were washed once in ice-cold PBS, lysed in complete lysis buffer on ice, and processed by G-LISA according to Cytoskeleton protocol.
(§2) In-cell selectivity of the compounds presented herein against a specific K-ras mutant form can also be tested as shown in the following exemplary experiment. 293H cells were seeded in 6-wells and transfected next day with 5 μg of Ras wild-type, or G12C, G12D or G12V mutant DNA plasmid vector. Next day cells were treated with 3.125-50 μM of Ras compounds for 1 hour. Wild-type transfected cells were subsequently treated with 100 ng/ml EGF for 2 minutes. Cells were washed once in ice-cold PBS, lysed in complete lysis buffer on ice, and processed by G-LISA according to Cytoskeleton protocol. FIG. 1 depicts exemplary results.
as §1, with “In still further experiments, the inventors tested selected compounds in a G-LISA assay to compare IC50 values for wild-type and various mutant K-Ras (G12D, G12V) using the following general protocol: 293H” for “293H”

[2] = biological target: K-ras G12V (Homo sapiens, UniProt P01116, G12V); test: G-LISA Ras activation assay, 293H cells transfected with G12V mutant; details: 1 hour treatment
K-ras G12V, sequence (P01116 1-188 isoform P01116-2 G12V): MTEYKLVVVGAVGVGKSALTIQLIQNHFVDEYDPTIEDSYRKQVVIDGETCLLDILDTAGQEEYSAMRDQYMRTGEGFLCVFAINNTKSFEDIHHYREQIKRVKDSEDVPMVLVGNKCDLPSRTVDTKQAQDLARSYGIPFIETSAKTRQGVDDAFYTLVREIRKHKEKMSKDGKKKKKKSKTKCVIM
Experimental: as §1, §2
as §1, with “In still further experiments, the inventors tested selected compounds in a G-LISA assay to compare IC50 values for wild-type and various mutant K-Ras (G12D, G12V) using the following general protocol: 293H” for “293H”

[3] = test system: Panc1 (G12D) cells; test: 72 hr cell viability (CellTiterBlue); details: GI50, 72 hr
Experimental: (§3) Viability assays were performed on exemplary compounds and Table 2 below lists exemplary results for selected compounds tested on wild type (Ishikawa) and various K-ras mutants (Panc1-G12D; Panc10.05-G12D; HCT116-G13D).
(§4) Cells are counted and seeded at 1000 cells/36 ul medium/well into 384-well microplates. Cells are returned to 37° C. CO2 incubator for 18 hr. Drug is made as 200× in DMSO and diluted into medium to 10×. To each well is added 4 ul 10× drug, and plates are returned to the incubator. Final assay DMSO concentration is 0.5%. After 72 hr, 8 ul CellTiterBlue (Promega) is added to each well. After 3 hr, fluorescence (Ex550/Em590) is determined on the Victor Plate Reader (Perkin Elmer). Assay range is determined by DMSO control (100% viability) and 100 uM tamoxifen (0% viability). GI50 values are calculated using Graphpad Prism.

[4] = test system: Panc10.05 (G12D) cells; test: 72 hr cell viability (CellTiterBlue); details: GI50, 72 hr
Experimental: as §3, §4

[5] = test system: Erk phosphorylation in Panc1 (G12D) cells; test: In-Cell Western Erk phosphorylation; details: EC50, one hour treatment; read-out: In-Cell Western Erk phosporylation Panc1 (G12D)
Experimental: (§5) In-cell phosphorylation assays for Erk and Akt were performed on various of the compounds and exemplary results are shown in Table 3 below using […] and Panc10.05 cell lines for G12D K-ras mutants.
(§6) Cells are seeded in complete medium into black sided, clear-bottom 384-well microplates at 3000 cells/[…]/well. Plates are returned to 37° C. CO2 incubator for 18 hr. Drug is made as 200× in DMSO and diluted into medium to 10×. To each well is added 4 ul 10× test article or controls, and plates are returned to the incubator. Final assay DMSO concentration is 0.5%. After one hour, cells are fixed in formaldehyde, rinsed & permeabilized with triton X-100, and blocked with BSA/Goat serum blocking solution. Primary phospho-Akt and phospho-ERK antibodies are added and plates are incubated overnight at 4° C. Plates are rinsed with Tween-20 wash buffer and secondary antibody (Goat anti-rabbit, Thermofisher) is added. After 2 hours, plates are rinsed in Tween-20 wash buffer, and then PBS. Plates are imaged on the Celigo (Nexcelom) and cellular fluorescence is quantitated. Full inhibition of phospho-Akt is achieved with 1 uM BEZ235 (Sellekchem), while full inhibition of phospho-ERK is achieved with 1 uM MEK Inhibitor II Calbiochem). EC50 values are calculated using Graphpad Prism.

[6] = test system: Erk phosphorylation in Panc10.05 (G12D) cells; test: In-Cell Western Erk phosphorylation; details: EC50, one hour treatment; read-out: In-Cell Western Erk phosporylation Panc10.05 (G12D)
Experimental: as §5, §6

[7] = test system: Akt phosphorylation in Panc1 (G12D) cells; test: In-Cell Western Akt phosphorylation; details: EC50, one hour treatment; read-out: In-Cell Western Akt phosporylation Panc1 (G12D)
Experimental: as §5, §6

[8] = test system: Akt phosphorylation in Panc10.05 (G12D) cells; test: In-Cell Western Akt phosphorylation; details: EC50, one hour treatment; read-out: In-Cell Western Akt phosporylation Panc10.05 (G12D)
Experimental: as §5, §6

[9] = test system: Ishikawa (K-Ras wild-type) cells; test: 72 hr cell viability (CellTiterBlue); details: GI50, 72 hr
Experimental: as §3, §4

[10] = biological target: K-Ras wild-type (Homo sapiens, UniProt P01116); test: G-LISA Ras activation assay, 293H cells transfected with Ras wild-type, EGF-stimulated; details: 1 hour treatment, 100 ng/ml EGF
K-Ras wild-type, sequence (P01116 1-188 isoform P01116-2): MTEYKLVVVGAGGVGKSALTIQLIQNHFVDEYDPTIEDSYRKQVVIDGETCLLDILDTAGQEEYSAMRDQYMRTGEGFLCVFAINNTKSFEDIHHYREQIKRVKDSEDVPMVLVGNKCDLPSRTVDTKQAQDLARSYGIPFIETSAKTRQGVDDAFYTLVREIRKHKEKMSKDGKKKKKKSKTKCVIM
Experimental: as §1, §2
as §1, with “In still further experiments, the inventors tested selected compounds in a G-LISA assay to compare IC50 values for wild-type and various mutant K-Ras (G12D, G12V) using the following general protocol: 293H” for “293H”

[11] = test system: HCT116 (G13D) cells; test: 72 hr cell viability (CellTiterBlue); details: GI50, 72 hr
Experimental: as §3, §4

[12] = Table 1, G-LISA, 293H transfected, read-out: IC50 (μM) G12D
[13] = Table 5, IC50, 293H transfected, read-out: G-LISA (G12D)
[14] = Table 1, G-LISA, 293H transfected, read-out: IC50 (μM) G12V
[15] = Table 5, IC50, 293H transfected, read-out: G-LISA (G12V)

K-ras G12D, sequence (P01116 1-188 isoform P01116-2 G12D): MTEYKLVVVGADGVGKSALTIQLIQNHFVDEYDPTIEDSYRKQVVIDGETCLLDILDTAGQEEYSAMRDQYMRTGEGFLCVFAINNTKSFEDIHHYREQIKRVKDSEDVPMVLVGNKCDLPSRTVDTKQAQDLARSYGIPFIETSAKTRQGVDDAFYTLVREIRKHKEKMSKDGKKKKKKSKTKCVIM

Row | SMILES | IC50 [1, 12] [µM] | IC50 [1, 13] [µM] | IC50 [2, 14] [µM] | IC50 [2, 15] [µM] | IC50 [3] [µM] | IC50 [4] [µM] | EC50 [5] [µM] | EC50 [6] [µM] | EC50 [7] [µM] | EC50 [8] [µM] | IC50 [9] [nM] | IC50 ([10]; Table 1, G-LISA, 293H transfected, read-out: IC50 (μM) Wild-type) [µM] | IC50 ([10]; Table 5, IC50, 293H transfected, read-out: G-LISA (wild type)) [µM] | IC50 [11] [µM]
1 | Cc1nc(C)c(C(=O)Nc2nc(-c3ccc4c(c3)CCC(=O)N4)c(C)s2)s1 [Compound 4802] | > 25 | 27 | 17 | 17 | – | – | – | – | – | – | – | – | – | –
2 | CCc1sc(NC(=O)c2sc(C)nc2C)nc1-c1ccc2c(c1)CCC(=O)N2 [Compound 4803] | > 25 | 71 | – | – | – | – | – | – | – | – | – | – | – | –
3 | Cc1nc(C)c(CNc2nc(-c3ccc4c(c3)CCC(=O)N4)cs2)s1 [Compound 4856] | > 25 | – | – | – | ≥ 25 | ≥ 25 | 7 | 19 | > 25 | > 25 | – | – | – | –
4 | Cc1ccccc1C(=O)Nc1nc(-c2ccc3c(c2)CCC(=O)N3)cs1 [Compound 4874] | 16 | 16 | – | – | 12 | – | > 25 | 14 | 25 | > 25 | 3000 | – | – | –
5 | COCc1nc(C)c(C(=O)Nc2nc(-c3ccc4c(c3)CCC(=O)N4)cs2)s1 [Compound 4876] | – | – | – | – | 13 | – | 9 | 17 | 20 | > 25 | 3000 | – | – | –
6 | Cc1nc(C2CC2)sc1C(=O)Nc1nc(-c2ccc3c(c2)CCC(=O)N3)cs1 [Compound 4877] | 6 | 6 | 9 | 9 | 5 | – | 3 | 3 | 7 | 17 | 1200 | 16 | 16 | –
7 | Cc1nc(-c2ccccc2)sc1C(=O)Nc1nc(-c2ccc3c(c2)CCC(=O)N3)cs1 [Compound 4878] | 19 | 19 | > 25 | > 25 | 7 | – | 19 | 13 | 26 | > 25 | 5000 | – | – | –
8 | Cc1nc(C)c(C(=O)N(Cc2ccccc2)c2nc(-c3ccc4c(c3)CCC(=O)N4Cc3ccccc3)cs2)s1 [Compound 4889] | – | – | – | – | ≥ 25 | ≥ 25 | > 25 | > 25 | > 25 | > 25 | 14000 | – | – | 21

Now from value to molecule, other results behind:

Row | IC50 [1, 12] [µM] | IC50 [1, 13] [µM] | SMILES | IC50 [2, 14] [µM] | IC50 [2, 15] [µM] | IC50 [3] [µM] | IC50 [4] [µM] | EC50 [5] [µM] | EC50 [6] [µM] | EC50 [7] [µM] | EC50 [8] [µM] | IC50 [9] [nM] | IC50 ([10]; Table 1, G-LISA, 293H transfected, read-out: IC50 (μM) Wild-type) [µM] | IC50 ([10]; Table 5, IC50, 293H transfected, read-out: G-LISA (wild type)) [µM] | IC50 [11] [µM]
9 | > 25 | > 25 | O=C1CCc2cc(-c3csc(NCc4ccccc4)n3)ccc2N1 [Compound 4824] | – | – | – | – | – | – | – | – | – | – | – | –
10 | > 25 | > 25 | O=C1CCc2cc(-c3csc(NC(=O)c4ccccc4)n3)ccc2N1 [Compound 4825] | – | – | – | – | – | – | – | – | – | – | – | –
11 | > 25 | > 25 | O=C1CCc2cc(-c3csc(NC(=O)c4ncccn4)n3)ccc2N1 [Compound 4826] | – | – | – | – | – | – | – | – | – | – | – | –
12 | > 25 | > 25 | Cc1nc(C(=O)Nc2nc(-c3ccc4c(c3)CCC(=O)N4)cs2)sc1C [Compound 4828] | – | – | – | – | – | – | – | – | – | – | – | –
13 | > 25 | > 25 | O=C1CCc2cc(-c3csc(Nc4ncccn4)n3)ccc2N1 [Compound 4829] | – | – | – | – | – | – | – | – | – | – | – | –
